Laboratory results from US9616062B2, “Cyclin dependent kinase inhibitors and methods of use” (priority 2009, dated 2017).

Tests used:
[1] = tested on: primary human renal proximal tubule epithelial cells; test: Cell cycle analysis (propidium iodide, flow cytometry); format: cell-based; settings: 16 hours
Experimental: (§1) Representative histograms of cell cycle analysis of Primary human renal proximal tubule epithelial cells treated with varying concentrations of PD0332991 for 16 hours. Cells were harvested, fixed, stained, and analyzed by flow cytometry. Data was fitted using Mod-Fit™ software from Verity (Verity Software House, Topsham, Me., United States of America).
as §1, with “Cell” for “Representative histograms of cell”, “America). Corresponding % of cells in G1 (diamonds), G2/M (squares) and S (triangles) are shown on the graph.” for “America).”
Primary normal human renal proximal epithelial cells (American Type Culture Collection (ATCC), Manassas, Va., United States of America) were cultured in renal epithelial cell basal media supplemented with renal epithelial cell growth kit according to the manufacturer's recommendations. […] For the γH2AX assay, cells were fixed, permeabilized, and stained with anti-γH2AX as per γH2AX Flow Kit (Millipore, Billerica, Mass., United States of America). γH2AX levels were assessed by flow cytometry. Cell proliferation was assessed by seeding 1×10^3 cells per well in a 96-well tissue culture plate in 100 μL of growth medium. […]

[2] = tested on: human peripheral blood T cells (memory and naive); test: Human peripheral blood T cell proliferation after PMA and ionomycin stimulation (BrdU, Ki-67 FACS); format: cell-based
Experimental: FIG. 13: CDK4/6 inhibitors suppress T cell proliferation upon stimulation through TCR pathway in both memory and naïve compartments. Human peripheral blood T cells were purified using Automacs by CD3 positive selection before being treated with CDK4/6 inhibitors and stimulated with PMA and Inomycin for 48 hrs. The proliferation of memory […] T cells after stimulation by PMA and Inomycin was measured by FACS staining of BrdU+ or Ki-67+ cells. The percentages of inhibition are shown, which indicates more inhibition of memory compartment than naïve compartment.
FIG. 14: CDK4/6 inhibitors suppress T cell proliferation upon stimulation through TCR pathway. […] Proliferation determined by BrdU or Ki67 incorporation. […]
FIG. 15: Changes of CD4 T cell composition after CDK4/6 inhibition. […] The memory and terminal differentiated T cell fractions as assessed by BrdU incorporation are reduced after CDK4/6 inhibition. […]
FIG. 16: Changes of CD4 T cell composition after CDK4/6 inhibition. […] The memory and terminal differentiated T cell fractions as assessed by Ki67 staining are reduced after CDK4/6 inhibition. […]
Similar results were seen using human lymphocytes. […] In FIG. 15, the effects of CDK4/6 inhibition on specific Tcell fractions is assessed, with and without TCR, showing CDK4/6 inhibition has a greater effect on proliferation of memory cells relative to naïve cells. […]

CC(=O)c1c(C)c2cnc(Nc3ccc(N4CCNCC4)cn3)nc2n(C2CCCC2)c1=O [PD0332991, 6-acetyl-8-cyclopentyl-5-methyl-2-(5-piperazin-1-yl-pyridin-2-ylamino)-8H-pyrido-[2,3-d]-pyrimidin-7-one]
cell cycle arrest (G0/G1, G2/M, S fractions) ([1]; 0, 10 nM-1 uM): induces a G1 arrest
cytotoxicity during G1 arrest ([1]; varying concentrations): without evidence of cytotoxicity
proliferation of memory vs naive T cells (BrdU incorporation, Ki67 expression) [2]: more significant decrease in homeostatic proliferation of memory T cells than naive T cells
